# The source made the active and inactive calls. The rule behind the calls is not given here.
# What was measured:
# [1] = Selectivity index, ratio of IC50 for rat L6 cells to IC50 for Trypanosoma cruzi Tulahuen C4 intracellular amastigotes infected in rat L6 cells; format: toxicity, cell-based; settings: read-out: Ratio IC50
# [2] = Selectivity index, ratio of IC50 for rat L6 cells to IC50 for Leishmania donovani MHOM-ET-67/L82 axenic amastigotes; format: toxicity; settings: read-out: Ratio IC50
# [3] = system: Trypanosoma cruzi; assay: Antiparasitic activity against Trypanosoma cruzi Tulahuen C4 intracellular amastigotes infected in rat L6 cells; format: functional, cell-based
# [4] = system: Plasmodium falciparum; assay: Antiparasitic activity against intraerythrocytic form of chloroquine/pyrimethamine-resistant Plasmodium falciparum K1; format: functional
# [5] = system: L6; assay: Cytotoxicity against rat L6 cells; format: cell-based
# [6] = system: Leishmania donovani; assay: Antiparasitic activity against Leishmania donovani MHOM-ET-67/L82 axenic amastigotes; format: functional
# [7] = Selectivity index, ratio of IC50 for rat L6 cells to IC50 for intraerythrocytic form of chloroquine/pyrimethamine-resistant Plasmodium falciparum K1 infected in human RBC; format: toxicity; settings: read-out: Ratio IC50
# [8] = system: L6; assay: Cytotoxicity against rat L6 cells assessed as cell viability after 72 hrs by Alamar blue assay; format: cell-based; settings: L6, 72 h
# [9] = system: Plasmodium falciparum; assay: (§1) Antiparasitic activity against intraerythrocytic form of chloroquine/pyrimethamine-resistant Plasmodium falciparum K1 infected in human RBC assessed as growth inhibition at 4.8 ug/ml preincubated for 48 hrs followed by [3H]-hypoxanthine addition measured after 24 hrs by liquid scintillation counting analysis relative to control; format: functional; settings: read-out: GI
# [10] = system: Trypanosoma cruzi; assay: Antiparasitic activity against Trypanosoma cruzi Tulahuen C4 intracellular amastigotes infected in rat L6 cells assessed as growth inhibition at 4.8 ug/ml after 96 hrs by CPRG/Nonidet reagent based photometric analysis relative to control; format: functional; settings: Tulahuen C4, L6, 96 h, read-out: GI
# [11] = system: Leishmania donovani; assay: Antiparasitic activity against Leishmania donovani MHOM-ET-67/L82 axenic amastigotes assessed as growth inhibition at 4.8 ug/ml after 72 hrs by resazurin dye-based fluorometric analysis relative to control; format: functional; settings: MHOM-ET-67/L82, 72 h, read-out: GI
# [12] = system: Trypanosoma cruzi; assay: Antiparasitic activity against Trypanosoma cruzi Tulahuen C4 intracellular amastigotes infected in rat L6 cells assessed as growth inhibition at 0.8 ug/ml after 96 hrs by CPRG/Nonidet reagent based photometric analysis relative to control; format: functional; settings: Tulahuen C4, L6, 96 h, read-out: GI
# [13] = system: Trypanosoma brucei rhodesiense; assay: Antiparasitic activity against Trypanosoma brucei rhodesiense STIB 900 trypomastigote bloodstream form assessed as growth inhibition at 4.8 ug/ml after 72 hrs by resazurin dye-based fluorometric analysis relative to control; format: functional; settings: STIB 900, 72 h, read-out: GI
# [14] = system: Trypanosoma brucei rhodesiense; assay: Antiparasitic activity against Trypanosoma brucei rhodesiense STIB 900 trypomastigote bloodstream form assessed as growth inhibition at 0.8 ug/ml after 72 hrs by resazurin dye-based fluorometric analysis relative to control; format: functional; settings: STIB 900, 72 h, read-out: GI
# [15] = system: Leishmania donovani; assay: Antiparasitic activity against Leishmania donovani MHOM-ET-67/L82 axenic amastigotes after 72 hrs by Alamar blue assay; format: functional; settings: MHOM-ET-67/L82, 72 h
# [16] = system: Plasmodium falciparum; assay: as §1, with “0.8” for “4.8”; format: functional; settings: read-out: GI
# [17] = system: Leishmania donovani; assay: Antiparasitic activity against Leishmania donovani MHOM-ET-67/L82 axenic amastigotes assessed as growth inhibition at 0.8 ug/ml after 72 hrs by resazurin dye-based fluorometric analysis relative to control; format: functional; settings: MHOM-ET-67/L82, 72 h, read-out: GI
# [18] = system: Plasmodium falciparum; assay: Antiparasitic activity against intraerythrocytic form of chloroquine/pyrimethamine-resistant Plasmodium falciparum K1 infected in human RBC preincubated for 48 hrs followed by [3H]-hypoxanthine addition measured after 24 hrs by liquid scintillation counting analysis; format: functional
# [19] = system: Trypanosoma cruzi; assay: Antiparasitic activity against Trypanosoma cruzi Tulahuen C4 intracellular amastigotes infected in rat L6 cells after 96 hrs by CPRG/Nonidet reagent based photometric analysis; format: functional, cell-based; settings: Tulahuen C4, L6, 96 h
SMILES,selectivity ratio [1],selectivity ratio [2],IC50 [3],IC50 [4],IC50 [5],IC50 [6],selectivity ratio [7],IC50 [8],inhibition of growth at 4.8 µg/mL [9],inhibition of growth at 4.8 µg/mL [10],inhibition of growth at 4.8 µg/mL [11],inhibition of growth at 0.8 µg/mL [12],inhibition of growth at 4.8 µg/mL [13],inhibition of growth at 0.8 µg/mL [14],IC50 [15],inhibition of growth at 0.8 µg/mL [16],inhibition of growth at 0.8 µg/mL [17],IC50 [18],IC50 [19],Activity [18]
O=S(=O)(c1ccc(Cl)cc1)N1CCCc2ccccc21,1.28,1.09,16 µM,8.43 µM,20.5 µM,18.9 µM,2.43,,,,,,,,,,,,,
Cc1cc(C)c(C)c(S(=O)(=O)N2c3ccccc3CCC2C)c1C (stereo unspecified),,20,,,,,,12.4 µM,78%,69.3%,100%,9.7%,0%,0%,0.62 µM,6.7%,73.1%,,,
Cc1cc(C)c(C)c(S(=O)(=O)N2CCc3ccccc32)c1C,,17.2,,,,,,12.6 µM,41.8%,31.4%,100%,10.3%,5.7%,5.5%,0.73 µM,3.3%,61.3%,,,
O=S(=O)(c1ccc(Br)cc1)N1CCCc2ccccc21,0.53,0.34,13.8 µM,6.65 µM,7.36 µM,21.4 µM,1.11,,,,,,,,,,,,,
CC1CCc2ccccc2N1S(=O)(=O)c1ccc(C(C)(C)C)cc1 (stereo unspecified),1.12,3.15,,,,,4.57,6.81 µM,100%,100%,100%,28%,0%,8.2%,2.16 µM,79.9%,62%,1.5 µM,6.06 µM,
CCCCCCCCCCCCCCCCOP(=O)([O-])OCC[N+](C)(C)C [MILTEFOSINE],,,,,,,,,,,93.3%,,,,0.25 µM,,60.1%,,,
CC1Cc2ccccc2N1S(=O)(=O)c1ccc([N+](=O)[O-])cc1 (stereo unspecified),24.8,,,,,,,69.4 µM,72.6%,94.4%,79.5%,19.4%,68.2%,6.9%,,18%,41.7%,,2.8 µM,Active
Cc1cc(C)c(C)c(S(=O)(=O)N2c3ccccc3CC2C)c1C (stereo unspecified),,28.8,,,,,,6.62 µM,76.7%,75.2%,100%,0%,0%,0%,0.23 µM,5.5%,77.2%,,,
O=[N+]([O-])c1ccc(S(=O)(=O)N2CCCc3ccccc32)cc1,21.7,,11.4 µM,8.31 µM,248 µM,> 271 µM,29.9,,,,,,,,,,,,,
CC1Cc2ccccc2N1S(=O)(=O)c1ccc(C(C)(C)C)cc1 (stereo unspecified),1.74,7.95,,,,,8.1,12.2 µM,99.9%,100%,100%,7.7%,6.4%,0%,1.53 µM,52.8%,53.3%,1.5 µM,6.98 µM,
CC1Cc2ccccc2N1S(=O)(=O)c1ccc(Cl)cc1 (stereo unspecified),2.31,,,,,,,11.1 µM,87.9%,100%,83.3%,0%,4%,6.5%,,17.7%,9%,,4.79 µM,
O=[N+]([O-])c1ccc(S(=O)(=O)N2CCc3ccccc32)cc1,7.9,,,,,,,9.1 µM,69.7%,100%,100%,34.7%,98%,27.4%,,0%,37.6%,,1.15 µM,Active
Cc1cc(C)c(C)c(S(=O)(=O)N2CCc3ccccc3C2)c1C,,4.8,,,,,,3.6 µM,18.8%,23.1%,100%,1.8%,1.7%,2%,0.76 µM,4.5%,63.3%,,,
CC1CCc2ccccc2N1S(=O)(=O)c1cccc(C(F)(F)F)c1 (stereo unspecified),1.98,,,,,,,13.1 µM,81.3%,95.6%,82.3%,5.4%,0%,1.8%,,5.8%,25.8%,,6.6 µM,
Cc1cc(C)c(C)c(S(=O)(=O)n2ccc3ccccc32)c1C,,13.4,,,,,,8.97 µM,41.4%,24.7%,100%,0.2%,2.7%,3.1%,0.64 µM,3.2%,76.4%,,,
Cc1cc(C)c(C)c(S(=O)(=O)N2CCCc3ccccc32)c1C,,7.53,,,,,,2.71 µM,56.5%,60.3%,100%,15.5%,3.7%,2.7%,0.36 µM,3.1%,94.2%,,,
O=[N+]([O-])c1cccc(S(=O)(=O)N2CCc3ccccc32)c1,14,,,,,,,15.1 µM,79.2%,100%,95.4%,36.4%,4.3%,0%,,14.7%,15.9%,,1.08 µM,
